COc1cc(Cc2cnc(N)nc2N)cc(OC)c1OC
Conditions | solubility (mole fraction)
in THF, 276.05 K | 0.000608
in THF, 281.81 K | 0.000714
in THF, 287.31 K | 0.000857
in THF, 292.65 K | 0.000987
in THF, 298.08 K | 0.00117
in THF, 303.12 K | 0.00137
in THF, 306.95 K | 0.00155
in THF, 311.69 K | 0.00178
in THF, 316.74 K | 0.00208
in THF, 321.34 K | 0.00244
in THF, 326.91 K | 0.00296
in THF, 333.87 K | 0.00377
in acetone, 276.94 K | 0.000456
in acetone, 282.12 K | 0.00054
in acetone, 288.62 K | 0.000664
in acetone, 292.94 K | 0.00076
in acetone, 297.96 K | 0.00089
in acetone, 304.17 K | 0.00108
in acetone, 309.34 K | 0.00128
in acetone, 314.34 K | 0.00149
in acetone, 319.07 K | 0.00173
in acetone, 323.51 K | 0.00199
in ethanol, 281.15 K | 0.000356
in ethanol, 287.25 K | 0.000461
in ethanol, 292.64 K | 0.000545
in ethanol, 297.95 K | 0.000681
in ethanol, 302.05 K | 0.000833
in ethanol, 307.85 K | 0.00105
in ethanol, 311.35 K | 0.00124
in ethanol, 315.24 K | 0.00151
in ethanol, 318.85 K | 0.00177
in ethanol, 323.95 K | 0.00223
in ethanol, 326.65 K | 0.00255
in ethanol, 330.66 K | 0.00309
in ethanol, 335.25 K | 0.00388
in isopropanol, 277.17 K | 0.000109
in isopropanol, 282.82 K | 0.000156
in isopropanol, 288.28 K | 0.000202
in isopropanol, 293.13 K | 0.000255
in isopropanol, 297.57 K | 0.000322
in isopropanol, 304.04 K | 0.000468
in isopropanol, 309.36 K | 0.000644
in isopropanol, 315.13 K | 0.00091
in isopropanol, 319.53 K | 0.00117
in isopropanol, 324.04 K | 0.00151
in isopropanol, 328.37 K | 0.0019
in isopropanol, 333.64 K | 0.00247
in methanol, 277.02 K | 0.000828
in methanol, 282.85 K | 0.001
in methanol, 288.09 K | 0.0012
in methanol, 293.03 K | 0.00143
in methanol, 298.17 K | 0.00173
in methanol, 304.24 K | 0.00217
in methanol, 309.36 K | 0.00265
in methanol, 314.12 K | 0.0032
in methanol, 319.06 K | 0.00392
in methanol, 323.53 K | 0.00471
in methanol, 328.15 K | 0.00571
in methanol, 333.73 K | 0.0072
in n-butanol, 276.35 K | 0.000157
in n-butanol, 282.63 K | 0.000254
in n-butanol, 287.96 K | 0.000359
in n-butanol, 292.84 K | 0.000473
in n-butanol, 298.46 K | 0.000635
in n-butanol, 303.72 K | 0.000844
in n-butanol, 308.84 K | 0.00106
in n-butanol, 313.36 K | 0.00133
in n-butanol, 318.45 K | 0.00175
in n-butanol, 323.73 K | 0.00235
in n-butanol, 329.21 K | 0.00306
in n-butanol, 333.73 K | 0.00386
in n-propanol, 277.35 K | 0.000278
in n-propanol, 283.63 K | 0.000328
in n-propanol, 288.97 K | 0.000414
in n-propanol, 294.05 K | 0.000531
in n-propanol, 298.93 K | 0.000677
in n-propanol, 303.84 K | 0.000866
in n-propanol, 308.44 K | 0.00109
in n-propanol, 314.54 K | 0.00148
in n-propanol, 319.17 K | 0.00186
in n-propanol, 323.48 K | 0.00231
in n-propanol, 328.57 K | 0.00298
in n-propanol, 334.15 K | 0.00392
in sec-butanol, 276.85 K | 0.000153
in sec-butanol, 283.66 K | 0.000179
in sec-butanol, 290.08 K | 0.0003
in sec-butanol, 294.67 K | 0.000422
in sec-butanol, 298.45 K | 0.000562
in sec-butanol, 303.74 K | 0.000758
in sec-butanol, 308.84 K | 0.00101
in sec-butanol, 313.35 K | 0.00131
in sec-butanol, 318.46 K | 0.00172
in sec-butanol, 323.56 K | 0.00231
in sec-butanol, 328.66 K | 0.0029
in sec-butanol, 333.74 K | 0.00377
